Test results as given in PubChem BioAssay (NCI).
“And” between values parts separate entries of the source, which are not always exact repeats. Equal values may be shown once.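 Five compound concentrations were applied to cells in 96-well plates for 48 hours; endpoints were derived by simple linear interpolation of the resulting dose-response curve. Here, GI50 denotes the concentration required for 50% inhibition of growth. Definition used: TGI = concentration required for complete inhibition of growth.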

What was measured:
Test in all cases: NCI-60 cell line screen, 48 h
MDA-MB-435 = system: MDA-MB-435
HCC-2998 colon = system: HCC-2998 colon
SN12C renal = system: SN12C renal
NCI-H23 lung = system: NCI-H23 lung
MALME-3M melanoma = system: MALME-3M melanoma
DU-145 prostate = system: DU-145 prostate
K-562 leukemia = system: K-562 leukemia
BT-549 breast = system: BT-549 breast
A549 NSCLC = system: A549 NSCLC
KM12 colon = system: KM12 colon

Row | Compound | GI50 (MDA-MB-435) [µM] | TGI (MDA-MB-435) [µM] | GI50 (HCC-2998 colon) | TGI (HCC-2998 colon) | GI50 (SN12C renal) | TGI (SN12C renal) | GI50 (NCI-H23 lung) [µM] | TGI (NCI-H23 lung) | GI50 (MALME-3M melanoma) [µM] | TGI (MALME-3M melanoma) [µM] | GI50 (DU-145 prostate) [µM] | TGI (DU-145 prostate) | GI50 (K-562 leukemia) | TGI (K-562 leukemia) | GI50 (BT-549 breast) [µM] | TGI (BT-549 breast) [µM] | GI50 (A549 NSCLC) | TGI (A549 NSCLC) | GI50 (KM12 colon) [µM] | TGI (KM12 colon)
1 | CCn1c(-c2nonc2N)nc2cnc(Oc3cccc(NC(=O)c4ccc(N(C)C)cc4)c3)cc21 | > 25 | > 25 | > 25 µM | > 25 µM | > 25 µM | > 25 µM | > 25 | > 25 µM | > 25 | > 25 | > 21.7 | > 25 µM | > 25 µM | > 25 µM | 0.859 | > 25 | 2.12 µM | > 25 µM | > 25 | > 25 µM
2 | COc1cc2cc(Oc3cccc(NC(=O)Nc4cc(C(F)(F)F)cc(C(F)(F)F)c4)c3)c(C)nc2cc1OC | 1.8 | 4.28 | 1.53 µM | 3.15 µM | 0.591 µM | 2.09 µM | 0.639 | 3.55 µM | 1.1 | 3.46 | 2.38 | 9.36 µM | 0.573 µM | 2.53 µM | 1.75 | 3.76 | 1.42 µM | 4.75 µM | 0.918 | 2.46 µM
3 | CCOC(=O)c1c(CN2CCN(C)CC2)nc2ccc(Cl)cc2c1-c1ccccc1 | 2.71 | 7.87 | 1.86 µM | 4.4 µM | 11.6 µM | 25.9 µM | 14.5 | 30.1 µM | 1.75 | 4.09 | 13.7 | 26.7 µM | 1.86 µM | 4.66 µM | 7.1 | 20.8 | 14.1 µM | 28.5 µM | 6.76 | 19.1 µM
4 | COc1ccc2c(c1OC)O/C(=C\c1ncc([N+](=O)[O-])n1C)C2=O | 0.277 | 1.11 | 2.16 µM | 4.73 µM | 1.78 µM | 8.83 µM | 1.3 | 5.6 µM | 1.15 | 3.53 | 1.42 | 6.27 µM | 2.12 µM | 7.99 µM | 1.77 | 4.46 | 2.59 µM | 12.1 µM | 2.79 | 10.3 µM
5 | COc1ccc(C(O)c2cc3c(N)c(C(=O)Nc4cccc(Br)c4C)sc3nc2C)cc1 (configuration not stated) | 0.0665 | 0.149 | 0.426 µM | 2.84 µM | 0.246 µM | > 33.3 µM | 0.276 | > 33.3 µM | 0.199 | > 33.3 | 0.135 | 4.54 µM | 0.14 µM | > 33.3 µM | 0.479 | 15.4 | 0.221 µM | > 16.8 µM | 0.152 | 11.7 µM
6 | CNC(=O)OCc1nc(SC)n(C)c1COC(=O)NC | – | 327 | – | 307 µM | – | 309 µM | – | 329 µM | – | 253 | – | 379 µM | – | 508 µM | – | 300 | – | 836 µM | – | 380 µM
7 | CCCCCC[C@H]1C(=O)O[C@H](C)[C@H](NC(=O)c2cccc(NC=O)c2OC)C(=O)O[C@@H](C)[C@@H]1OC(=O)CCC (tested in a mixture with another compound) | 9.6 | 27.9 | 14.9 µM | 38.2 µM | 16.2 µM | 37.1 µM | 9.53 | 49.2 µM | 15.3 | 41.2 | 11.7 | 30.1 µM | 4.99 µM | 33.9 µM | 11.9 | 35.5 | 7.24 µM | 22.8 µM | 9.77 | 31.4 µM
8 | CC1OC(OC2C(O)C(O)C(O)C(O)C2O)C(N)CC1N=C(N)C(=O)O (configuration not stated) | – | > 100 | – | > 100 µM | – | > 100 µM | – | > 100 µM | – | > 100 | – | > 100 µM | – | > 100 µM | – | > 100 | – | > 100 µM | – | > 100 µM
9 | COc1cc(N(C)C)c(OC)cc1C=C1C=CC=C1 | – | > 100 | – | > 100 µM | – | > 100 µM | – | > 100 µM | – | > 100 | – | > 100 µM | – | > 100 µM | – | > 100 | – | > 100 µM | – | > 100 µM
10 | COc1ccc(-c2cc(/C=C/C(=O)c3ccc(N)cc3)[nH]n2)cc1 | 2.24 | 7 | 1.83 µM | 3.36 µM | 1.89 µM | 6.63 µM | 3.22 | 13.1 µM | 2.18 | 6.22 | 1.32 | 3.46 µM | 1.42 µM | 11.6 µM | 1.74 | 4.78 | 2.55 µM | 10.2 µM | 1.54 | 3.42 µM
11 | O=CN1N=C(c2cccc(Nc3ccnc4cc(Cl)ccc34)c2)CC1c1ccc(Cl)cc1 (configuration not stated) | 0.293 | 24.9 | 3.36 µM | > 100 µM | 3.86 µM | > 100 µM | 2.48 | > 100 µM | 1.63 | > 100 | 4.17 | > 100 µM | 0.413 µM | > 100 µM | 1.36 | 16.2 | 0.941 µM | > 100 µM | 0.591 | > 100 µM
12 | CCOC(=O)/C(=C\c1ccc2ccccc2c1)P(=O)(OCC)OCC | 2.92 | 13.3 | 1.96 µM | 3.43 µM | 2.85 µM | 8.89 µM | 1.95 | 4.78 µM | 2.52 | 7.95 | 2.63 | 9.32 µM | 2.73 µM | 50.8 µM | 2.3 | 5.88 | 3.08 µM | 11.6 µM | 3.08 | 10.9 µM
13 | NCCCN=c1ccc2c3c1c(O)c1c(O)ccc(=O)c1c3[nH]n2CCNCCO | – | 15.4 | 1.6 µM and 3.18 µM | 11.4 µM and 26.8 µM | 0.413 µM and 0.391 µM | 6.15 µM and 10.2 µM | 1.06 | 5.66 µM and 8.54 µM | – | 6 | 1 | 5.57 µM and 8.3 µM | 1.61 µM and 1.64 µM | 24.2 µM and 27.2 µM | – | 5.31 | 0.571 µM and 0.304 µM | 12.3 µM and 21.8 µM | 1.88 | 11.6 µM and 39 µM
